Data on two substances can be found in article PMC5290484, “Structure and lipid-binding properties of the kindlin-3 pleckstrin homology domain” (Biochemical Journal, 2017).

In assay [1] the target is T1, Grp1 PH domain (Homo sapiens, UniProt O43739).
T1 construct: UniProtKB: O43739) PH domain (residues 264–392) were cloned into a pOPINJ vector; His6-GST (tandem), followed by HRV-3C site (N, cleaved yes); made in house; host or cells: E. coli (same protocol as kindlin-3 PH, B834)
T1 sequence (O43739 264-392): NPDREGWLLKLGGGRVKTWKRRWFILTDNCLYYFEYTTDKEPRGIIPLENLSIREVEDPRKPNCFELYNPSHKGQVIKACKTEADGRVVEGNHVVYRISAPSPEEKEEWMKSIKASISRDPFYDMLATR
The assay is described as follows: SPR, immobilised lipid headgroup as ligand, Grp1 PH domain as analyte. It counts as binding. The text has this: We further asked whether our observations are specific to the kindlin-3 PH domain (and similar domains) or could also be shown for PH domains which are already known to bind to inositol phosphate species in a classical, 1:1 interaction mode. If they could be shown for such well-characterised domains, then our results with the kindlin-3 PH domain would seem questionable. […] So, in the case of Grp1, there is only a five times difference in affinity between immobilised lipid headgroups and whole lipids in a lipid nanodisc (rather than the ∼100× enhancement observed with the kindlin-3 PH domain).
SPR experiments were performed using a Biacore T200 machine (GE Healthcare Life Sciences) at 20°C in 10 mM HEPES (pH 7.5) and 150 mM NaCl. PtdIns(4,5)P2 (C-45B6a) and PtdIns(3,4,5)P3 (C-39B6a) were purchased from Echelon Biosciences. The BIAcore CM5 chip (GE Healthcare Life Sciences) was firstly covered with streptavidin following the manufacturer's instructions before the biotinylated PIPs or biotinylated proteins were immobilised. The analyte with twofold serial dilutions was applied at a flow rate of 20 µl/min for 180 s followed by 600 s of dissociation time. […]
(In SPR one partner is held on a chip, and binding of the other changes the refractive index at the surface.)

Assay [2] concerns the target T1, Grp1 PH domain. Further details: method as in PMID 26977543. The settings on record: same method; ref [34]; cited from earlier work.
Assay [3] has as its target T2, kindlin-3 PH domain (Mus musculus, UniProt Q8K1B8).
T2 construct: kindlin-3 PH domain (residues 344–479); His6-GST (tandem), followed by HRV-3C site (N, cleaved yes); made in house; host or cells: BirA+ Escherichia coli strain
Nature of the assay: SPR, immobilised biotinylated lipid headgroup as ligand, kindlin-3 PH domain WT as analyte. It counts as binding. The text has this: To verify the potential interaction between clustered phosphatidylinositol phosphates and the kindlin-3 PH domain observed in our MD simulations, we conducted surface plasmon resonance (SPR) experiments. Firstly, a biotinylated inositol phosphate was immobilised onto a streptavidin-derivatised sensor chip, as in previous studies. The use of streptavidin-mediated immobilisation meant that the distance separating individual lipids would be larger than the size of the tetrameric streptavidin, and therefore than the PH domain itself, meaning that one PH domain would be able to bind no more than one lipid headgroup simultaneously, imposing one-to-one binding in the interaction (Figure 4A). […] We note that, in the MD simulation with the mutated form of the kindlin-3 PH domain, the protein is capable of binding to the bilayer in a similar orientation to the wild type (WT); however, in many simulations, it quickly dissociates from the bilayer (Supplementary Figure S8). A naturally occurred IPRR (isoleucine–proline–arginine–arginine) insertion in the β1–β2 loop of kindlin-3 has been reported to disable integrin activation and thus lymphocyte adhesion and migration.
(§1) SPR experiments were performed using a Biacore T200 machine (GE Healthcare Life Sciences) at 20°C in 10 mM HEPES (pH 7.5) and 150 mM NaCl. PtdIns(4,5)P2 (C-45B6a) and PtdIns(3,4,5)P3 (C-39B6a) were purchased from Echelon Biosciences. The BIAcore CM5 chip (GE Healthcare Life Sciences) was firstly covered with streptavidin following the manufacturer's instructions before the biotinylated PIPs or biotinylated proteins were immobilised. The analyte with twofold serial dilutions was applied at a flow rate of 20 µl/min for 180 s followed by 600 s of dissociation time. The biosensor chip was regenerated after each sample injection cycle with a different buffer in the two experimental set-ups: in the case of immobilised PIPs on the sensor chip, 0.1% SDS was used; when the PH domain was immobilised, then the surface was regenerated by 2 M MgCl2. The data were fit with a 1:1 Langmuir adsorption model (B = BmaxC/(KD + C), where B is the response of bound analyte and C is the concentration of the analyte in the sample to calculate the dissociation constant (KD) using the BIAanalysis software. The molecular mass of the nanodiscs for SPR analysis was estimated to be 120 kDa.

Assay [4] has as its system T3, kindlin-3 PH domain, two lysines within the β1–β2 loop mutated.
T3 construct: kindlin-3 PH domain (residues 344–479); His6-GST (tandem), followed by HRV-3C site (N, cleaved yes); made in house; host or cells: BirA+ Escherichia coli strain
Nature of the assay: SPR, immobilised kindlin-3 PH domain with two β1–β2 loop lysines mutated, lipid nanodiscs as analyte. It is filed as binding, mouse. The settings on record: site-directed mutagenesis of two lysines within the β1–β2 loop. As for the experimental part: (§2) The observation in MD simulation that multiple phosphoinositol molecules may bind to more than one site on a single PH domain (Figures 2 and 3) led us to attempt further verification of this mode of interaction experimentally. […] To study the effect of phosphatidylinositol lipid concentrations on their binding by PH domains, we performed the SPR experiments in an inverted set-up. The biotinylated PH domain was immobilised onto the sensor chip and the nanodiscs were prepared as the analyte.
as §1, with “The data were fit with a 1:1 Langmuir adsorption model (B = BmaxC/(KD + C), where B is the response of bound analyte and C is the concentration of the analyte in the sample to calculate the dissociation constant (KD) using the BIAanalysis software. The molecular mass of the nanodiscs for SPR analysis was estimated to be 120 kDa.” left out

In assay [5] the target is T2, kindlin-3 PH domain. Nature of the assay: SPR, immobilised biotinylated kindlin-3 PH domain as ligand, lipid nanodiscs as analyte. It is filed as binding. The method, then: as §2
POPC and POPE (1-palmitoyl-2-oleoyl-sn-glycero-3-phosphoethanolamine) were purchased from Avanti Polar Lipids, and PtdIns(4,5)P2 (P-4516), PtdIns(3,4,5)P3 (P-3924), and Ins(1,3,4,5)P4 (Q-1345) were purchased from Echelon Biosciences. Nanodiscs were prepared following standard protocols. Briefly, to prepare nandiscs containing 5% (mol/mol) PtdIns(3,4,5)P3, a mixture of 200 µl of 10 mg/ml POPC, 200 µl of 10 mg/ml POPE together with 670 µl of 0.5 mg/ml PtdIns(3,4,5)P3 in chloroform were dried on a clean Pyrex tube under argon. Chloroform residue was then removed by desiccation in a desiccator attached on a VARIO-SP diaphragm pump (Vacuubrand). The lipid film was subsequently hydrated by adding 1 ml of solubilisation buffer [20 mM HEPES (pH 7.5), 150 mM NaCl, and 17 mM Na-cholate] followed by vigorous votexing. […]

Setting [6] is: immobilised headgroup on streptavidin chip, WT PH domain as analyte, 20°C, 10 mM HEPES pH 7.5, 150 mM NaCl, 1:1 Langmuir fit, read-out: dissociation constant (KD).

Like-named read-outs stand apart in the source and are kept apart here.

T2 sequence (Q8K1B8 344-479): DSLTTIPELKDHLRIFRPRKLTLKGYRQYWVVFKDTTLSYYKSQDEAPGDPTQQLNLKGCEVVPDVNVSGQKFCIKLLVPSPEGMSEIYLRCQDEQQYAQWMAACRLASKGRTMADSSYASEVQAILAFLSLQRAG

For PtdIns(3,4,5)P3, on Grp1 PH domain [1] (immobilised PtdIns(3,4,5)P3 headgroup), the Bmax came out at 7150 RU. Also, the Kd (usually the free concentration of one partner at which half of the binding sites on the other are occupied at equilibrium, for simple one-to-one binding) at Grp1 PH domain [1] (immobilised headgroup) was 2.8 ± 0.4 µM; at kindlin-3 PH domain [3] (immobilised headgroup on streptavidin chip, WT PH domain as analyte, 20°C, 10 mM HEPES pH 7.5, 150 mM NaCl, 1:1 Langmuir fit, listed as PIP3, read-out: dissociation constant (KD)), about 300 µM; on kindlin-3 PH domain [3] (setting [6]), 300 µM. For the same substance, the PMF well depth at Grp1 PH domain [2] was -5.3 kcal/mol. Also, the “nanodisc binding to the PH domain (in words)” value (in assay [4]; at kindlin-3 PH domain [5] (PtdIns(3,4,5)P3 composition reduced to 1% of nanodisc lipids)) was “abolishes nanodisc binding” throughout.

PtdIns(4,5)P2: on Grp1 PH domain [2], the PMF well depth was -3.8 kcal/mol. Moreover, the Kd at kindlin-3 PH domain [3] (setting [6]) was found to be 1100 µM; on kindlin-3 PH domain [3] (immobilised headgroup, PH domain as analyte, as given in the abstract, read-out: affinity (KD)) it was 1000 µM. Besides, the “nanodisc binding to the PH domain (in words)” value at kindlin-3 PH domain [5] (inositol phosphate lipid 5% of total lipids in nanodisc) is “no affinity”.
